Read-outs that look alike come from different tables or passages of the source.
What was measured:
S.D. rat = assay type: in vivo; settings: for Gastric Ulcers % Inhibition / Gastric Ulcers Mean Score + SEM (number of ulcers): 4 hours after indomethacin; for dose at which significant ulcer reduction was observed: administered simultaneously with indomethacin
Procedure: Indomethacin, 20 mg/kg p.o., was used to induce ulcers in the 24 hr. fasted S.D. rat. […]
The number of ulcers for twenty-six (i.p.) and fifteen (p.o.) aqueous vehicle-dosed control animals in the indomethacin ulcer assay were so close, (23.0±2.2 S.E.M. i.p.; 18.1±1.6 S.E.M. p.o.), that the data from each experimental dosage group were pooled for group statistical analysis by way of Student's "t" test. FIG. 1 indicates the number of ulcers resulting from indomethacin at 20 mg/kg p.o., when either 0.5% (wt.) aqueous methylcellulose vehicle or L-363,586 was co-administered. The bold-faced numbers at the bottom of each column represent the number of rats used for each value, while the dose, in mg/kg, is noted at the top of each column. […] Higher i.p. doses, from 0.0016 to 0.1 mg/kg, thereafter, inhibited ulcer formation by 80% to 94%.

[1] = tested on: Sprague-Dawley (S.D.) rats; assay type: in vivo, rat; settings: for Gastric Lesions % Inhibition / Gastric Lesions Mean Score + SEM: 60 minutes after ethanol
Procedure: Twenty-four hr. fasted Sprague-Dawley (S.D.) rats were perorally (p.o.) dosed with 1.0 ml absolute ethanol. […] One hour later, the animals were sacrificed and stomach mucosae were examined for resulting lesions.

[2] = 0.0001 mg/kg i.p. immediately following 20 mg/kg p.o. indomethacin
[3] = 0.001 mg/kg i.p. immediately following 20 mg/kg p.o. indomethacin
[4] = 0.01 mg/kg i.p. immediately following 20 mg/kg p.o. indomethacin
[5] = 0.1 mg/kg i.p. immediately following 20 mg/kg p.o. indomethacin
[6] = 0.01 mg/kg p.o. simultaneously with indomethacin 20 mg/kg p.o.
[7] = 0.1 mg/kg p.o. simultaneously with indomethacin 20 mg/kg p.o.
[8] = 1.0 mg/kg p.o. simultaneously with indomethacin 20 mg/kg p.o.
[9] = 0.22 mg/kg p.o. coadministered with 1.0 ml 100% ethanol
[10] = 0.44 mg/kg p.o. coadministered with 1.0 ml 100% ethanol
[11] = 1.0 mg/kg p.o. coadministered with 1.0 ml 100% ethanol
[12] = 2.2 mg/kg p.o. coadministered with 1.0 ml 100% ethanol
[13] = 4.4 mg/kg p.o. coadministered with 1.0 ml 100% ethanol

With `C[C@H](N)C(=O)NCC(=O)N[C@H]1CSSC[C@@H](C(=O)O)NC(=O)[C@H](CO)NC(=O)[C@H]([C@@H](C)O)NC(=O)[C@H](Cc2ccccc2)NC(=O)[C@H]([C@@H](C)O)NC(=O)[C@H](CCCCN)NC(=O)[C@H](Cc2c[nH]c3ccccc23)NC(=O)[C@H](Cc2ccccc2)NC(=O)[C@H](Cc2ccccc2)NC(=O)[C@H](CC(N)=O)NC(=O)[C@H](CCCCN)NC1=O` [somatostatin, reference compound] the “Gastric Ulcers % Inhibition” value (S.D. rat; [2]) was -9.3%, the “Gastric Ulcers Mean Score + SEM (number of ulcers)” value (from here on “Gastric Ulcers Mean Score + SEM”) (S.D. rat; [2]) was 22.4 ± 3.8 and the “Gastric Ulcers % Inhibition” value (S.D. rat; [3]) was 2.4%. The “Gastric Ulcers Mean Score + SEM” value (S.D. rat; [3]) was 21.0 ± 2.4, the “Gastric Ulcers % Inhibition” value (S.D. rat; [4]) was 16.1% and the “Gastric Ulcers Mean Score + SEM” value (S.D. rat; [4]) was 17.2 ± 2.3. For the same compound, the “Gastric Ulcers % Inhibition” value (S.D. rat; [5]) was 5.9%, the “Gastric Ulcers Mean Score + SEM” value (S.D. rat; [5]) was 19.3 ± 3.3 and the “Gastric Ulcers Mean Score + SEM” value (S.D. rat; 0.5 mg/kg i.p. immediately following 20 mg/kg p.o. indomethacin) was 7.7 ± 3.6. The “Gastric Ulcers Mean Score + SEM” value (S.D. rat; 1.0 mg/kg i.p. immediately following 20 mg/kg p.o. indomethacin) was 11.0 ± 3.0 and the “effectiveness in the peroral (p.o.) indomethacin-induced ulcer assay” value (S.D. rat; doses up to 0.1 mg/kg i.p.) was “not effective”.
For `CC(C)[C@@H]1NC(=O)[C@H](CCCCN)NC(=O)[C@@H](Cc2c[nH]c3ccccc23)NC(=O)[C@H](Cc2ccc(O)cc2)NC(=O)[C@H](C)N(C)C(=O)[C@H](Cc2ccccc2)NC1=O` [L-363,586, cyclo-(N-methyl-Ala-Tyr-d-Trp-Lys-Val-Phe)], the “reduction of the number of ulcers” value (S.D. rat; 0.00001 mg/kg (10 nanograms/kg) i.p. immediately following indomethacin 20 mg/kg p.o.) was 58.3%, the “% Inhibition of Gastric Ulcers” value (S.D. rat; [6]) was -2.8% and the “Number of Gastric Ulcers M + S.E.M.” value (S.D. rat; [6]) was 18.6 ± 4.4. The “% Inhibition of Gastric Ulcers” value (S.D. rat; [7]) was 50.3%, the “Number of Gastric Ulcers M + S.E.M.” value (S.D. rat; [7]) was 9.0 ± 1.9 and the “% Inhibition of Gastric Ulcers” value (S.D. rat; [8]) was 83.4%. For the same compound, the “Number of Gastric Ulcers M + S.E.M.” value (S.D. rat; [8]) was 3.0 ± 1.3, the “reduction in gastric mucosal ulcers” value (S.D. rat; administered either p.o. or i.p.) was “dose-dependent reduction” and the “dose at which significant ulcer reduction was observed” value (S.D. rat; i.p.) was 10 nanograms per kilogram. The “further reduction of damage with increasing dose” value (S.D. rat; increasing log-dose amounts from 0.00001 to 0.001 mg/kg i.p., indomethacin 20 mg/kg p.o.) was “did not effectively reduce the damage any further”, the “dose at which significant ulcer reduction was observed” value (S.D. rat; p.o.) was 0.1 mg/kg and the “Gastric Lesions % Inhibition” value [1, 9] was 8.0%. For the same compound, the “Gastric Lesions Mean Score + SEM” value [1, 9] was 2.3 ± 0.3, the “Gastric Lesions % Inhibition” value [1, 10] was 28.0% and the “Gastric Lesions Mean Score + SEM” value [1, 10] was 1.8 ± 0.4. The “Gastric Lesions % Inhibition” value [1, 11] was 28.0%, the “Gastric Lesions Mean Score + SEM” value [1, 11] was 1.8 ± 0.3 and the “Gastric Lesions % Inhibition” value [1, 12] was 40.0%. For the same compound, the “Gastric Lesions Mean Score + SEM” value [1, 12] was 1.5 ± 0.4, the “Gastric Lesions % Inhibition” value [1, 13] was 60.0% and the “Gastric Lesions Mean Score + SEM” value [1, 13] was 1.0 ± 0.3. For the same compound, the “prophylactic effect on ethanol-induced lesions” value ([1]; 0.037 to 3.0 mg/kg p.o. fifteen min. prior to 1.0 ml absolute ethanol, examined one hour later) was “No prophylactic effect” and the “dose significantly effective in protecting against ethanol-induced lesions” value ([1]; p.o. simultaneously with 100% ethanol, lowest such dose) was 0.44 mg/kg.

Source: patent US4470974A, “Gastric cytoprotection with L-363,586” (Merck & Co., Inc., priority 1983, dated 1984)
